Reference: US9676789B2, “Aminated derivative of homoharringtonine, preparation method therefor, and application thereof” (HANGZHOU BENSHENG PHARMACEUTICAL CO., LTD., priority 2011, dated 2017)
In brackets after ≈: the same amount, converted by molar mass. Blank lines part the entries; values can stand above or below the compound they belong to.

What was measured:
[1] = system: Hep-2 (human hepatocellular carcinoma); assay: MTT solid tumor cell growth inhibition, 72 h; format: cell-based; conditions: Homo sapiens, HEp-2, Hep2, 72 h; for IC50: read-out: IC50; for IC90: read-out: IC90
Procedure: (§1) Human solid tumor cell lines: Hep-2 ([…]), A549 (human lung cancer), CaES-17 (esophageal cancer cell), PC-3 (prostate cancer), CNE (nasopharyngeal carcinoma cell), and SK-OV-3 (ovarian cancer cell), all of which are purchased from China Center For Type Culture Collection; RKO (human colon adenocarcinoma cell), MGC 803 (human gastric cancer cell), MG63 (osteosarcoma) and U87 MG (malignant glioma cell), all of which are purchased from Fuxiang Bio-tech Co. Ltd., Shanghai, China; PANC-1 (pancreatic cancer), Huh7 (human liver cancer cell), Becap37 (human breast cancer cell), and Hela (human cervical cancer cell), all of which are donated by Cancer Research Institute of Zhejiang University, China.
(§2) Obtaining 4000 well-growing human solid tumor cells and inoculating them into wells of a 96-well cell culture plate. The culture medium is DMEM High Glucose cell culture medium containing 10% fetal bovine serum. The plate is placed in a carbon dioxide cell incubator (5% CO2) at 37° C. and incubating for 24 hours. After adding the homoharringtonine derivatives of different concentration and mixing uniformly, the plate is placed in a carbon dioxide cell incubator (5% CO2) at 37° C. and incubating for 72 hours. Then the viable cell concentration is determined by the MTT method and the cell viability (%) after drug treatment is calculated. In this experiment, the cell viability of control group (not treated with any compound) is set as 100%.

A549 (human lung cancer) = assay: MTT solid tumor cell growth inhibition, 72 h; format: cell-based; conditions: Homo sapiens, A549, 72 h; for IC50: read-out: IC50; for IC90: read-out: IC90
Procedure: as §1, §2

[2] = system: MGC 803 (human gastric cancer cell); assay: MTT solid tumor cell growth inhibition, 72 h; format: cell-based; conditions: Homo sapiens, MGC 803, 72 h; for IC50: read-out: IC50; for IC90: read-out: IC90
Procedure: as §1, §2

[3] = system: Hela (human cervical cancer cell); assay: MTT solid tumor cell growth inhibition, 72 h; format: cell-based; conditions: Homo sapiens, HeLa; for IC50: read-out: IC50; for IC90: read-out: IC90
Procedure: as §1, §2

[4] = system: Huh7 (human liver cancer cell); assay: MTT solid tumor cell growth inhibition, 72 h; format: cell-based; conditions: Homo sapiens, Huh-7, Huh7, 72 h; for IC50: read-out: IC50; for IC90: read-out: IC90
Procedure: as §1, §2

[5] = system: RKO (human colon adenocarcinoma cell); assay: MTT solid tumor cell growth inhibition, 72 h; format: cell-based; conditions: Homo sapiens; for IC50: read-out: IC50; for IC90: read-out: IC90
Procedure: as §1, §2

[6] = system: Becap37 (human breast cancer cell); assay: MTT solid tumor cell growth inhibition, 72 h; format: cell-based; conditions: Homo sapiens, Becap37, 72 h; for IC50: read-out: IC50; for IC90: read-out: IC90
Procedure: as §1, §2

[7] = system: RPMI8226 (multiple myeloma); assay: MTT multiple myeloma cell growth inhibition, 72 h; format: cell-based, human; conditions: Homo sapiens, RPMI-8226, RPMI8226, 72 h; for IC50: read-out: IC50; for IC90: read-out: IC90
Procedure: Multiple myeloma and lymphoma cell lines: RPMI8226 (multiple myeloma), purchased from Fuxiang Bio-tech Co. Ltd., Shanghai, China.
(§3) Obtaining 6000 well-growing leukemia cells and inoculating them into wells of a 96-well cell culture plate. The culture medium is the 1640 cell culture medium containing 10% fetal bovine serum. After adding the homoharringtonine derivatives of different concentrations and mixing uniformly, placing the plate in a carbon dioxide cell incubator (5% CO2) at 37° C. and incubating for 72 hours. Then the viable cell concentration is determined by the MTT method.

[8] = system: SK-OV-3 (ovarian cancer cell); assay: MTT solid tumor cell growth inhibition, 72 h; format: cell-based, human; conditions: Homo sapiens, SK-OV-3, 72 h; for IC50: read-out: IC50; for IC90: read-out: IC90
Procedure: as §1, §2

MG63 (osteosarcoma) = assay: MTT solid tumor cell growth inhibition, 72 h; format: cell-based, human; conditions: Homo sapiens, MG 63, 72 h; for IC50: read-out: IC50; for IC90: read-out: IC90
Procedure: as §1, §2

[9] = system: PANC-1 (pancreatic cancer); assay: MTT solid tumor cell growth inhibition, 72 h; format: cell-based, human; conditions: Homo sapiens, PANC-1, 72 h; for IC50: read-out: IC50; for IC90: read-out: IC90
Procedure: as §1, §2

[10] = system: U87 MG (malignant glioma cell); assay: MTT solid tumor cell growth inhibition, 72 h; format: cell-based, human; conditions: Homo sapiens, U-87 MG; for IC50: read-out: IC50; for IC90: read-out: IC90
Procedure: as §1, §2

[11] = system: CNE (nasopharyngeal carcinoma cell); assay: MTT solid tumor cell growth inhibition, 72 h; format: cell-based, human; conditions: Homo sapiens; for IC50: read-out: IC50; for IC90: read-out: IC90
Procedure: as §1, §2

[12] = system: CaES-17 (esophageal cancer cell); assay: MTT solid tumor cell growth inhibition, 72 h; format: cell-based, human; conditions: Homo sapiens, CaEs17, CaES-17, 72 h; for IC50: read-out: IC50; for IC90: read-out: IC90
Procedure: as §1, §2

PC-3 (prostate cancer) = assay: MTT solid tumor cell growth inhibition, 72 h; format: cell-based, human; conditions: Homo sapiens, PC-3, 72 h; for IC50: read-out: IC50; for IC90: read-out: IC90
Procedure: as §1, §2

[13] = system: Kasumi-1 (acute myeloid leukemia M2 type, AML-M2); assay: MTT leukemia cell growth inhibition, 72 h; format: cell-based, human; conditions: Homo sapiens, Kasumi-1, 72 h; for IC50: read-out: IC50; for IC90: read-out: IC90
Description: (§4) Leukemia cell lines: K562/adr (drug-resistant, chronic myeloid leukemia, CML), NB4 (acute promyelocytic leukemia, AML), Kasumi-1 (acute myeloid leukemia M2 type, AML-M2), Jurkat (acute lymphoblastic leukemia, ALL), all of which are donated by Cancer Research Institute of Zhejiang University, China; and H9 (acute lymphoblastic leukemia, ALL), which is purchased from China Center for Type Culture Collection.
as §3, with “method. In this experiment, the cell viability in control group (not treated with any compound) is set as 100%.” for “method.”

[14] = system: K562/adr (drug-resistant, chronic myeloid leukemia, CML); assay: MTT leukemia cell growth inhibition, 72 h; format: cell-based, human; conditions: Homo sapiens, K562/Adr; for IC50: read-out: IC50; for IC90: read-out: IC90
Description: as §4
as §3, with “method. In this experiment, the cell viability in control group (not treated with any compound) is set as 100%.” for “method.”

[15] = system: Jurkat (acute lymphoblastic leukemia, ALL); assay: MTT leukemia cell growth inhibition, 72 h; format: cell-based, human; conditions: Homo sapiens; for IC50: read-out: IC50; for IC90: read-out: IC90
Description: as §4
as §3, with “method. In this experiment, the cell viability in control group (not treated with any compound) is set as 100%.” for “method.”

[16] = system: NB4 (acute promyelocytic leukemia, AML); assay: MTT leukemia cell growth inhibition, 72 h; format: cell-based, human; conditions: Homo sapiens, NB4, 72 h; for IC50: read-out: IC50; for IC90: read-out: IC90
Description: as §4
as §3, with “method. In this experiment, the cell viability in control group (not treated with any compound) is set as 100%.” for “method.”

[17] = system: H9 (acute lymphoblastic leukemia, ALL); assay: MTT leukemia cell growth inhibition, 72 h; format: cell-based, human; conditions: Homo sapiens, H9, 72 h; for IC50: read-out: IC50; for IC90: read-out: IC90
Description: as §4
as §3, with “method. In this experiment, the cell viability in control group (not treated with any compound) is set as 100%.” for “method.”

[18] = system: A549, PANC-1, Becap37, MG63, Huh7, RKO, Hela, CaES-17, CNE, Hep-2, PC-3 and SK-OV-3; assay: Anti-human solid tumor effect, summary over cell lines; format: cell-based; conditions: result in words, summary of Table 2
Procedure: as §1, §2

SMILES: COC1=C[C@]23CCCN2CCc2cc4c(cc2[C@@H]3[C@@H]1OC(=O)[C@@](O)(CCCC(C)(C)O)CC(=O)N1CCN(c2ccc(F)cc2)CC1)OCO4 [BS-HH-046, O-3-[(2R)-2,6-dihydroxy-2-(2′-(4-(4-fluorophenyl)piperazinyl)-2′-oxoethyl)-6-methylheptanoyl]cephalotaxine]
IC50 [1]: 0.27 µg/mL (≈ 0.389 µM)
IC90 [1]: > 16 µg/mL
IC50 (A549 (human lung cancer)): 0.84 µg/mL (≈ 1.21 µM)
IC90 (A549 (human lung cancer)): > 16 µg/mL
IC50 [2]: 0.39 µg/mL (≈ 0.562 µM)
IC90 [2]: 8.28 µg/mL (≈ 11.9 µM)
IC50 [3]: 1.56 µg/mL (≈ 2.25 µM)
IC90 [3]: > 16 µg/mL
IC50 [4]: 1.37 µg/mL (≈ 1.97 µM)
IC90 [4]: > 16 µg/mL
IC50 [5]: 0.054 µg/mL (≈ 0.0778 µM)
IC90 [5]: 0.93 µg/mL (≈ 1.34 µM)
IC50 [6]: 0.4 µg/mL (≈ 0.577 µM)
IC90 [6]: > 16 µg/mL
IC50 [7]: 0.17 µg/mL (≈ 0.245 µM)
IC90 [7]: 0.72 µg/mL (≈ 1.04 µM)
IC50 [8]: 1.89 µg/mL (≈ 2.72 µM)
IC90 [8]: > 16 µg/mL
IC50 (MG63 (osteosarcoma)): 0.23 µg/mL (≈ 0.332 µM)
IC90 (MG63 (osteosarcoma)): > 16 µg/mL
IC50 [9]: 0.45 µg/mL (≈ 0.649 µM)
IC90 [9]: > 16 µg/mL
IC50 [10]: 0.25 µg/mL (≈ 0.36 µM)
IC90 [10]: > 16 µg/mL
IC50 [11]: 0.3 µg/mL (≈ 0.432 µM)
IC90 [11]: 16 µg/mL (≈ 23.1 µM)
IC50 [12]: 0.98 µg/mL (≈ 1.41 µM)
IC90 [12]: 16 µg/mL (≈ 23.1 µM)
IC50 (PC-3 (prostate cancer)): 0.78 µg/mL (≈ 1.12 µM)
IC90 (PC-3 (prostate cancer)): > 16 µg/mL
IC50 [13]: 0.26 µg/mL (≈ 0.375 µM)
IC90 [13]: 2.26 µg/mL (≈ 3.26 µM)
IC50 [14]: 14.5 µg/mL (≈ 20.9 µM)
IC90 [14]: > 16 µg/mL
IC50 [15]: 0.32 µg/mL (≈ 0.461 µM)
IC90 [15]: 15.2 µg/mL (≈ 21.9 µM)
IC50 [16]: 0.19 µg/mL (≈ 0.274 µM)
IC90 [16]: 0.5 µg/mL (≈ 0.721 µM)
IC50 [17]: 0.5 µg/mL (≈ 0.721 µM)
IC90 [17]: 7.84 µg/mL (≈ 11.3 µM)
anti-A549, anti-PANC-1, anti-Becap37, anti-MG63, anti-Huh7, anti-RKO, anti-Hela, anti-CaES-17, anti-CNE, anti-Hep-2, anti-PC-3 and anti-SK-OV-3 effect [18]: strong

IC50 [1]: 0.014 µg/mL (≈ 0.0257 µM)
IC90 [1]: > 16 µg/mL
IC50 (A549 (human lung cancer)): 0.03 µg/mL (≈ 0.055 µM)
IC90 (A549 (human lung cancer)): > 16 µg/mL
IC50 [2]: 0.016 µg/mL (≈ 0.0293 µM)
IC90 [2]: 0.2 µg/mL (≈ 0.367 µM)
IC50 [3]: 0.019 µg/mL (≈ 0.0348 µM)
IC90 [3]: 16 µg/mL (≈ 29.3 µM)
IC50 [4]: 0.004 µg/mL (≈ 0.00733 µM)
IC90 [4]: 0.049 µg/mL (≈ 0.0898 µM)
IC50 [5]: 0.003 µg/mL (≈ 0.0055 µM)
IC90 [5]: 0.009 µg/mL (≈ 0.0165 µM)
IC50 [6]: 0.01 µg/mL (≈ 0.0183 µM)
IC90 [6]: 11.6 µg/mL (≈ 21.2 µM)
IC50 [7]: 0.006 µg/mL (≈ 0.011 µM)
IC90 [7]: 0.027 µg/mL (≈ 0.0495 µM)
IC50 [8]: 0.003 µg/mL (≈ 0.0055 µM)
IC90 [8]: 0.009 µg/mL (≈ 0.0165 µM)
IC50 (MG63 (osteosarcoma)): 0.01 µg/mL (≈ 0.0183 µM)
IC90 (MG63 (osteosarcoma)): 1.2 µg/mL (≈ 2.2 µM)
IC50 [9]: 0.035 µg/mL (≈ 0.0641 µM)
IC90 [9]: > 16 µg/mL
IC50 [10]: 0.004 µg/mL (≈ 0.00733 µM)
IC90 [10]: 0.018 µg/mL (≈ 0.033 µM)
IC50 [11]: 0.038 µg/mL (≈ 0.0696 µM)
IC90 [11]: > 16 µg/mL
IC50 [12]: 0.037 µg/mL (≈ 0.0678 µM)
IC90 [12]: > 16 µg/mL
IC50 (PC-3 (prostate cancer)): 0.004 µg/mL (≈ 0.00733 µM)
IC90 (PC-3 (prostate cancer)): 0.049 µg/mL (≈ 0.0898 µM)
IC50 [13]: 0.005 µg/mL (≈ 0.00916 µM)
IC90 [13]: 0.024 µg/mL (≈ 0.044 µM)
IC50 [14]: 0.035 µg/mL (≈ 0.0641 µM)
IC90 [14]: 0.98 µg/mL (≈ 1.8 µM)
IC50 [15]: 0.007 µg/mL (≈ 0.0128 µM)
IC90 [15]: 16 µg/mL (≈ 29.3 µM)
IC50 [16]: 0.006 µg/mL (≈ 0.011 µM)
IC90 [16]: 0.012 µg/mL (≈ 0.022 µM)
IC50 [17]: 0.02 µg/mL (≈ 0.0367 µM)
IC90 [17]: 0.046 µg/mL (≈ 0.0843 µM)
SMILES: COC(=O)C[C@](O)(CCCC(C)(C)O)C(=O)O[C@@H]1C(OC)=C[C@]23CCCN2CCc2cc4c(cc2[C@H]13)OCO4 [HHT, O-3-[(2R)-2,6-dihydroxy-2-(2′-methoxy-2′-oxoethyl)-6-methylheptanoyl]cephalotaxine, reference compound]
